pEC50: −log10 of the molar value.
Assays:
[1] = Mammalian cytotoxicity on non-immortalized IMR90 cells; type: cell-based; details: human
[2] = test system: T. brucei bloodstream form (BSF); assay: T. brucei bloodstream form parasite viability; type: cell-based, Trypanosoma brucei; details: SI = IMR90 EC50/parasite EC50
[3] = test system: L. amazonensis promastigote form parasites; assay: L. amazonensis promastigote viability; type: cell-based; details: SI = IMR90 EC50/parasite EC50
[4] = test system: T. brucei BSF 90-13 parasites; assay: Annexin V-FITC labeling; type: cell-based; details: BSF trypanosomes, 6 h exposure at compound's EC50 value; control line 463
[5] = test system: C/EBP-homologous protein (CHOP); details: cited from earlier work

Structure (SMILES)	pEC50 [1]	T. brucei selectivity index, SI [2]	L. amazonensis selectivity index, SI [3]	Annexin-V labeling, relative fluorescence median signal [4]	mammalian CHOP activity [5]
O=C(Nc1ccc(S(=O)(=O)N2CCC(F)CC2)cc1)c1ccc([N+](=O)[O-])o1 [Compound 9]	< 4.60	> 60	> 3		
CC(C)(C)C1CCN(S(=O)(=O)c2ccc(NC(=O)c3ccc([N+](=O)[O-])o3)cc2)CC1 [Compound 5]	< 4.60	> 833	> 18	1225	
CC1(C)CCN(S(=O)(=O)c2ccc(NC(=O)c3ccc([N+](=O)[O-])o3)cc2)CC1 [Compound 4]	< 4.60	> 278	> 89		
CC1(C)CCN(S(=O)(=O)c2cccc(NC(=O)c3ccc([N+](=O)[O-])s3)c2)CC1 [Compound 25]	< 4.60	> 556	> 19		
CC1CCN(S(=O)(=O)c2ccc(NC(=O)c3ccc([N+](=O)[O-])o3)cc2)CC1 [Compound 3]	< 4.60	> 208	> 3		
O=C(Nc1cccc(S(=O)(=O)N2CCOCC2)c1)c1ccc([N+](=O)[O-])o1 [Compound 29]	< 4.60	> 17	> 28		
O=C(Nc1ccc(S(=O)(=O)N2CCC3(CCCCC3)CC2)cc1)c1ccc([N+](=O)[O-])o1 [Compound 6]	< 4.60	> 833	> 17		
O=C(Nc1ccc(S(=O)(=O)c2ccccc2)cc1)c1ccc([N+](=O)[O-])o1 [Compound 13]	< 4.60	> 227	> 6		
CC1(C)CCN(S(=O)(=O)c2ccc(NC(=O)c3cccc([N+](=O)[O-])c3)cc2)CC1 [Compound 19]	< 4.60	> 4	> 2		no mammalian CHOP activity
O=C(Nc1ccc(S(=O)(=O)N2CCOCC2)cc1)c1cccs1 [Compound 15]	< 4.60				
O=C(Nc1ccc(S(=O)(=O)N2CCOCC2)cc1)c1ccc([N+](=O)[O-])o1 [Compound 1]	< 4.60	> 54	> 8		
CC1(C)CCN(S(=O)(=O)c2cccc(NC(=O)c3ccc([N+](=O)[O-])o3)c2)CC1 [Compound 26]	< 4.60	> 78	> 250		
CC1(C)CCN(S(=O)(=O)c2ccc(NC(=O)c3ccc(C(F)(F)F)o3)cc2)CC1 [Compound 20]	< 4.60	> 3	> 2		no mammalian CHOP activity
O=C(Nc1ccc(S(=O)(=O)N2CCC(Cl)CC2)cc1)c1ccc([N+](=O)[O-])o1 [Compound 8]	< 4.60	> 313	> 3		
O=C(Nc1ccc(S(=O)(=O)N2CCOCC2)cc1)c1ccco1 [Compound 14]	< 4.60				
O=C(Nc1ccc(S(=O)(=O)N2CCCCC2)cc1)c1ccc([N+](=O)[O-])o1 [Compound 2]	< 4.60	>114	> 2		
CC(C)(C)C1CCN(S(=O)(=O)c2ccc(NC(=O)c3ccc([N+](=O)[O-])s3)cc2)CC1 [Compound 23]	< 4.60	> 833	> 250		
CC1(C)CCN(S(=O)(=O)c2cccc(NC(=O)c3cccc([N+](=O)[O-])c3)c2)CC1 [Compound 28]	< 4.60	> 2	> 8		
O=C(Nc1ccc(S(=O)(=O)N2CCOCC2)cc1)c1ccc([N+](=O)[O-])s1 [Compound 21]	< 4.60	> 417	> 19		
O=C(Nc1ccc(S(=O)(=O)N2CCOCC2)cc1)c1ccccc1 [Compound 16]	< 4.60				
O=C(Nc1ccc(S(=O)(=O)N2CCC3(CCCCC3)CC2)cc1)c1ccc([N+](=O)[O-])s1 [Compound 24]	< 4.60	> 1250	> 250		
O=C(Nc1ccc(S(=O)(=O)C2CCCCC2)cc1)c1ccc([N+](=O)[O-])o1 [Compound 11]	< 4.60	> 51	> 16		
Cc1ccc(C(=O)Nc2ccc(S(=O)(=O)N3CCOCC3)cc2)o1 [Compound 17]	< 4.60				
O=C(Nc1ccc(S(=O)(=O)N2CCOCC2)cc1)c1ccc([N+](=O)[O-])cc1 [Compound 18]	< 4.60				
CC1(C)CCN(S(=O)(=O)c2ccc(NC(=O)c3ccc([N+](=O)[O-])s3)cc2)CC1 [Compound 22]	< 4.60	> 2500	> 250		
O=C(Nc1ccc(S(=O)(=O)N2CCC(O)CC2)cc1)c1ccc([N+](=O)[O-])o1 [Compound 7]	< 4.60	> 81	> 6		
N=C1CCN(S(=O)(=O)c2ccc(NC(=O)c3ccc([N+](=O)[O-])o3)cc2)CC1 [Compound 10]	< 4.60	> 34	> 2		
CC1(C)CCN(S(=O)(=O)c2cccc(NC(=O)c3ccco3)c2)CC1 [Compound 27]	< 4.60	> 5	> 21		
O=C(Nc1ccc(S(=O)(=O)C2=CCOC=C2)cc1)c1ccc([N+](=O)[O-])o1 [Compound 12]	< 4.60	> 47	> 83		

Reference: publication PMC5296257 (Bioorganic & medicinal chemistry letters, 2017)
